Experiments:
Format in all cases: cell-based, mouse
[1] = system: β-galactosidase in CMV-LacZ C2C12 myotubes; test: CMV-LacZ secondary screen in C2C12 myotubes (β-Gal stabilizing assay); conditions: C2C12 CMV-LacZ myotubes, fold relative to DMSO
Outline: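 β-gal stabilization was measured in C2C12 myoblasts or myotubes stably transfected with a CMV-driven LacZ construct, using the FDG β-gal assay. Compounds were tested in dose-response at 0.5, 1, 5, 10, 20 and 40 μM, with two replicates per point.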

[2] = system: α7 integrin (LacZ reporter in α7βgal+/− myoblasts); test: Myoblast α7+/LacZ integrin FDG assay (Burkin assay in myoblasts, 96-well); conditions: α7+/LacZ myoblasts, 96-well
[3] = system: α7 integrin (LacZ reporter in α7+/LacZ myotubes); test: Myotube α7 integrin FDG assay (Burkin assay in myotubes, 96-well); conditions: myotubes
[4] = system: β-galactosidase in CMV-LacZ C2C12 myoblasts; test: CMV-LacZ secondary screen in C2C12 myoblasts (β-Gal stabilizing assay); conditions: CMV-LacZ C2C12 myoblasts
Outline: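 CMV-LacZ C2C12 line (clonal, FDG-screened); myoblasts/myotubes dosed 0.5–40 μM (0.5, 1, 5, 10, 20, 40 μM); n=2 per point; β-gal stabilization read-out.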

Cc1ccsc1-c1n[nH]c(=S)n1C1CCCCC1 [MLS000698617-01]
CMV-LACZ in Myotubes, signal relative to DMSO ([1]; 0.5 uM): 1.1221
CMV-LACZ in Myotubes, signal relative to DMSO ([1]; 1 uM): 1.0842
CMV-LACZ in Myotubes, signal relative to DMSO ([1]; 5 uM): 0.9014
CMV-LACZ in Myotubes, signal relative to DMSO ([1]; 10 uM): 0.9614
CMV-LACZ in Myotubes, signal relative to DMSO ([1]; 20 uM): 1.0011
CMV-LACZ in Myotubes, signal relative to DMSO ([1]; 40 uM): 1.0111
Burkin Assay in Myoblasts, signal relative to DMSO ([2]; 0.5 uM): 1.008
Burkin Assay in Myoblasts, signal relative to DMSO ([2]; 1 uM): 1.003
Burkin Assay in Myoblasts, signal relative to DMSO ([2]; 5 uM): 1.06
Burkin Assay in Myoblasts, signal relative to DMSO ([2]; 10 uM): 0.9317
Burkin Assay in Myoblasts, signal relative to DMSO ([2]; 20 uM): 0.8462
Burkin Assay in Myoblasts, signal relative to DMSO ([2]; 40 uM): 0.8966
Burkin Assay in Myotubes, α7 integrin LacZ reporter signal relative to DMSO ([3]; 0.5 uM): 1.197
Burkin Assay in Myotubes, α7 integrin LacZ reporter signal relative to DMSO ([3]; 1 uM): 1.075
Burkin Assay in Myotubes, α7 integrin LacZ reporter signal relative to DMSO ([3]; 5 uM): 1.139
Burkin Assay in Myotubes, α7 integrin LacZ reporter signal relative to DMSO ([3]; 10 uM): 0.945
Burkin Assay in Myotubes, α7 integrin LacZ reporter signal relative to DMSO ([3]; 20 uM): 1.092
Burkin Assay in Myotubes, α7 integrin LacZ reporter signal relative to DMSO ([3]; 40 uM): 0.7963
CMV-LACZ in Myoblasts (β-galactosidase activity relative to DMSO) ([4]; 0.5 uM): 1.3409
CMV-LACZ in Myoblasts (β-galactosidase activity relative to DMSO) ([4]; 1 uM): 0.9852
CMV-LACZ in Myoblasts (β-galactosidase activity relative to DMSO) ([4]; 5 uM): 1.1399
CMV-LACZ in Myoblasts (β-galactosidase activity relative to DMSO) ([4]; 10 uM): 1.0603
CMV-LACZ in Myoblasts (β-galactosidase activity relative to DMSO) ([4]; 20 uM): 1.1670
CMV-LACZ in Myoblasts (β-galactosidase activity relative to DMSO) ([4]; 40 uM): 1.0356

COc1cc([N+](=O)[O-])cc(/C=N/NC(=O)C(O)(c2ccccc2)c2ccccc2)c1O [MLS001183575-01]
CMV-LACZ in Myotubes, signal relative to DMSO ([1]; 0.5 uM): 0.9648
CMV-LACZ in Myotubes, signal relative to DMSO ([1]; 1 uM): 0.8657
CMV-LACZ in Myotubes, signal relative to DMSO ([1]; 5 uM): 0.7726
CMV-LACZ in Myotubes, signal relative to DMSO ([1]; 10 uM): 0.9136
CMV-LACZ in Myotubes, signal relative to DMSO ([1]; 20 uM): 0.8230
CMV-LACZ in Myotubes, signal relative to DMSO ([1]; 40 uM): 1.1230
Burkin Assay in Myoblasts, signal relative to DMSO ([2]; 0.5 uM): 0.9644
Burkin Assay in Myoblasts, signal relative to DMSO ([2]; 1 uM): 1.009
Burkin Assay in Myoblasts, signal relative to DMSO ([2]; 5 uM): 0.8981
Burkin Assay in Myoblasts, signal relative to DMSO ([2]; 10 uM): 0.7946
Burkin Assay in Myoblasts, signal relative to DMSO ([2]; 20 uM): 0.6916
Burkin Assay in Myoblasts, signal relative to DMSO ([2]; 40 uM): 0.5338
Burkin Assay in Myotubes, α7 integrin LacZ reporter signal relative to DMSO ([3]; 0.5 uM): 1.0887
Burkin Assay in Myotubes, α7 integrin LacZ reporter signal relative to DMSO ([3]; 1 uM): 0.9681
Burkin Assay in Myotubes, α7 integrin LacZ reporter signal relative to DMSO ([3]; 5 uM): 0.8172
Burkin Assay in Myotubes, α7 integrin LacZ reporter signal relative to DMSO ([3]; 10 uM): 0.7938
Burkin Assay in Myotubes, α7 integrin LacZ reporter signal relative to DMSO ([3]; 20 uM): 0.7378
Burkin Assay in Myotubes, α7 integrin LacZ reporter signal relative to DMSO ([3]; 40 uM): 0.6868
CMV-LACZ in Myoblasts (β-galactosidase activity relative to DMSO) ([4]; 0.5 uM): 1.1603
CMV-LACZ in Myoblasts (β-galactosidase activity relative to DMSO) ([4]; 1 uM): 1.2440
CMV-LACZ in Myoblasts (β-galactosidase activity relative to DMSO) ([4]; 5 uM): 0.8972
CMV-LACZ in Myoblasts (β-galactosidase activity relative to DMSO) ([4]; 10 uM): 0.7762
CMV-LACZ in Myoblasts (β-galactosidase activity relative to DMSO) ([4]; 20 uM): 1.2825
CMV-LACZ in Myoblasts (β-galactosidase activity relative to DMSO) ([4]; 40 uM): 0.8856

CCOC(=O)c1cc(-c2cccs2)nc2c1c(C)nn2-c1ccccn1 [MLS001006516-01]
CMV-LACZ in Myotubes, signal relative to DMSO ([1]; 0.5 uM): 0.9581
CMV-LACZ in Myotubes, signal relative to DMSO ([1]; 1 uM): 0.9257
CMV-LACZ in Myotubes, signal relative to DMSO ([1]; 5 uM): 0.9283
CMV-LACZ in Myotubes, signal relative to DMSO ([1]; 10 uM): 0.8542
CMV-LACZ in Myotubes, signal relative to DMSO ([1]; 20 uM): 0.9032
CMV-LACZ in Myotubes, signal relative to DMSO ([1]; 40 uM): 0.9484
Burkin Assay in Myoblasts, signal relative to DMSO ([2]; 0.5 uM): 1.097
Burkin Assay in Myoblasts, signal relative to DMSO ([2]; 1 uM): 1.134
Burkin Assay in Myoblasts, signal relative to DMSO ([2]; 5 uM): 0.8796
Burkin Assay in Myoblasts, signal relative to DMSO ([2]; 10 uM): 0.7932
Burkin Assay in Myoblasts, signal relative to DMSO ([2]; 20 uM): 0.6928
Burkin Assay in Myoblasts, signal relative to DMSO ([2]; 40 uM): 0.4802
Burkin Assay in Myotubes, α7 integrin LacZ reporter signal relative to DMSO ([3]; 0.5 uM): 0.9261
Burkin Assay in Myotubes, α7 integrin LacZ reporter signal relative to DMSO ([3]; 1 uM): 0.8714
Burkin Assay in Myotubes, α7 integrin LacZ reporter signal relative to DMSO ([3]; 5 uM): 0.9257
Burkin Assay in Myotubes, α7 integrin LacZ reporter signal relative to DMSO ([3]; 10 uM): 0.9085
Burkin Assay in Myotubes, α7 integrin LacZ reporter signal relative to DMSO ([3]; 20 uM): 0.7127
Burkin Assay in Myotubes, α7 integrin LacZ reporter signal relative to DMSO ([3]; 40 uM): 0.7127
CMV-LACZ in Myoblasts (β-galactosidase activity relative to DMSO) ([4]; 0.5 uM): 1.0038
CMV-LACZ in Myoblasts (β-galactosidase activity relative to DMSO) ([4]; 1 uM): 0.8858
CMV-LACZ in Myoblasts (β-galactosidase activity relative to DMSO) ([4]; 5 uM): 0.9829
CMV-LACZ in Myoblasts (β-galactosidase activity relative to DMSO) ([4]; 10 uM): 0.9076
CMV-LACZ in Myoblasts (β-galactosidase activity relative to DMSO) ([4]; 20 uM): 0.4956
CMV-LACZ in Myoblasts (β-galactosidase activity relative to DMSO) ([4]; 40 uM): 0.6589

— patent US9980943B2, “Methods of treating muscular dystrophy” (BOARD OF REGENTS OF THE NEVADA SYSTEM OF HIGHER EDUCATION, …, priority 2013, dated 2018)
